Data published in patent US8067620B2, “Dispiro 1,2,4-trioxolane antimalarials” (Medicines for Malaria Venture MMV, priority 2005, dated 2011).
In brackets after ≈: the same amount, converted by molar mass. Like-named read-outs stand apart in the source and are kept apart here.

Experiments:
[1] = Pharmacokinetic studies in rats (oral); format: in vivo, rat; conditions: oral 10 mg/kg; for Oral Bioavailability at 10 mg/kg (%): relative to an IV dose
Experimental: Pharmacokinetic studies in rats: Compounds were administered orally to rats (n=2) at a dose of 10 mg/kg in a suspension formulation containing hydroxypropylmethyl cellulose, Tween 80, benzyl alcohol, and water. […] Oral bioavailability for each compound was calculated relative to an IV dose for each compound in a suitable vehicle.

[2] = system: Embryonic red blood cells (RBCs); test: Rat whole embryo culture (WEC) model, embryotoxicity
Text: Embryonic red blood cells (RBCs) were the primary target leading to anemia and subsequent hypoxia in embryonic tissues.
Longo, M.; Zanoncelli, S.; Manera, D.; Brughera, M.; Colombo, P.; Lansen J.; Mazué, G.; Gomes, M.; Taylor W. R. J.; Olliaro, P. Effects of the Antimalarial Drug Dihydroartemisinin (DHA) on Rat Embryos In Vitro. Repro. Tox. 2006, 21, 83-93.

P. berghei = test: Prophylactic activity against P. berghei in vivo (mice dosed before infection); conditions: for Cures 24 h prior to infection (30 mg/kg) / Activity (%) 24 h prior to infection (30 mg/kg): single 30 mg/kg oral dose 24 h prior to infection; for Cures 24 h prior to infection (30 mg/kg) / Cures 48 h prior to infection (100 mg/kg) / Cures 72 h prior to infection (100 mg/kg) / Cures 96 h prior to infection (100 mg/kg): n=5 mice; for Activity (%) 24 h prior to infection (30 mg/kg) / Activity (%) 48 h prior to infection (100 mg/kg): parasitemia day 3 post-infection; for Cures 48 h prior to infection (100 mg/kg) / Activity (%) 48 h prior to infection (100 mg/kg): single 100 mg/kg oral dose 48 h prior to infection; for Activity (%) 72 h prior to infection (100 mg/kg) / Cures 72 h prior to infection (100 mg/kg): single 100 mg/kg oral dose 72 h prior to infection; for Activity (%) 96 h prior to infection (100 mg/kg) / Cures 96 h prior to infection (100 mg/kg): single 100 mg/kg oral dose 96 h prior to infection
Experimental: All groups (n=5 mice per group) including an untreated control group, were infected at the same time and parasitemia was determined for each animal on day 3 post-infection and compared with the level of parasitemia in control animals.

[3] = Blood stability studies in freshly collected rat blood; format: in vitro ADME; design: unit not given here
Experimental: Blood stability studies: Compounds were incubated at 37° C. in freshly collected rat blood. At selected time points, duplicate aliquots of the whole blood were sampled, centrifuged and the plasma assayed for parent compound by LC-MS.

[4] = system: chloroquine-sensitive NF54 strain of Plasmodium falciparum; test: Activity against P. falciparum NF54 strain in vitro; format: cell-based
Text: (§1) Activity of 1,2,4-trioxolanes against P. falciparum in vitro.

[5] = system: chloroquine-resistant K1 strain of Plasmodium falciparum; test: Activity against P. falciparum K1 strain in vitro; format: cell-based
Text: as §1

[6] = system: ANKA strain of P. berghei; test: Single dose in vivo screen in P. berghei-infected NMRI mice; conditions: for Survival (days) 30 mg/kg SSV po / Activity (%) 30 mg/kg SSV po: single 30 mg/kg po dose in SSV one day post-infection; for Activity (%) 30 mg/kg SSV po: percent reduction in parasitemia on day three post-infection; for Cures 30 mg/kg SSV po: single 30 mg/kg po dose in SSV, cure = survival to day 30 post-infection, groups of five mice
Experimental: Activity of 1,2,4-trioxolanes against P. berghei in vivo. In the single dose in vivo screen, NMRI mice infected with the ANKA strain of P. berghei (groups of five mice) were treated one day post-infection with trioxolanes dissolved or suspended in standard suspending vehicle (SSV). The SSV consists of either 0.5% w/v carboxymethyl cellulose, 0.5% v/v benzyl alcohol, 0.4% v/v Tween 80, and 0.9% w/v sodium chloride in water or 0.5% hydroxypropylmethylcellulose 0.4% v/s Tween 80, and 0.5% v/v benzyl alcohol in water. […] Antimalarial activity was measured by percent reduction in parasitemia on day three post-infection and survival times compared to an untreated control group. Survival to day 30 post-infection is considered to be a cure in this model.

[7] = P. falciparum NF54, in vitro, second value of K1/NF54 cell, read-out: IC50 (ng/ml) NF54
[8] = P. falciparum K1, in vitro, first value of K1/NF54 cell, read-out: IC50 (ng/ml) K1

Compound	NOAEL for embryonic RBCs [2]	Cures 24 h prior to infection (30 mg/kg) (P. berghei)	Activity (%) 24 h prior to infection (30 mg/kg) (P. berghei)	Cures 48 h prior to infection (100 mg/kg) (P. berghei)	Activity (%) 48 h prior to infection (100 mg/kg) (P. berghei)	Activity (%) 72 h prior to infection (100 mg/kg) (P. berghei)	Cures 72 h prior to infection (100 mg/kg) (P. berghei)	Survival (days) 30 mg/kg SSV po [6]	Activity (%) 30 mg/kg SSV po [6]	Cures 30 mg/kg SSV po [6]	also measured
CS(=O)(=O)O.c1cc(C2CCC3(CC2)OOC2(O3)C3CC4CC(C3)CC2C4)ccc1OCCN1CCOCC1 (stereo not drawn) [OZ439]	5 µg/mL	5/5	99.8%	5/5	99.6%	99.6%	5/5	–	–	–	Oral Bioavailability at 10 mg/kg (%) [1]: 94%; Activity (%) 96 h prior to infection (100 mg/kg) (P. berghei): 99.5%; Cures 96 h prior to infection (100 mg/kg) (P. berghei): 5/5
CS(=O)(=O)O.NC1CCC(Oc2ccc(C3CCC4(CC3)OOC3(O4)C4CC5CC(C4)CC3C5)cc2)CC1 (stereo not drawn) [OZ493]	1 µg/mL	3/5	>99.9%	5/5	99%	99.9%	5/5	–	–	–	Stability in Rat Blood (t1/2) at 37° C. [3]: >17; In Vivo Oral t1/2 at 10 mg/kg ([1]; 10 mg/kg): 7.7 h; Oral Bioavailability at 10 mg/kg (%) ([1]; 10 mg/kg): 51%; Activity (%) 96 h prior to infection (100 mg/kg) (P. berghei): 99.5%; Cures 96 h prior to infection (100 mg/kg) (P. berghei): 3/5
OC(c1cc(C(F)(F)F)nc2c(C(F)(F)F)cccc12)C1CCCCN1 (stereo not drawn) [MQ, mefloquine, reference compound]	–	3/5	>99.9%	3/5	99.9%	>99.9%	0/5	21.8 days	99.6%	0/5	IC50 [4, 7]: 5.8 ng/mL (≈ 0.0153 µM); IC50 [5, 8]: 3 ng/mL (≈ 0.00793 µM)
CCN(CC)CCCC(C)Nc1ccnc2cc(Cl)ccc12 (stereo not drawn) [CQ, chloroquine, reference compound]	–	0/5	–	0/5	–	–	–	9.6 days	–	0/5	IC50 ([4]; K1 / NF54, read-out: IC50 (ng/ml) NF54): 5.1 ng/mL (≈ 0.0159 µM); IC50 ([5]; K1 / NF54, read-out: IC50 (ng/ml) K1): 62 ng/mL (≈ 0.194 µM)
C[C@@H]1CC[C@H]2[C@@H](C)C(=O)O[C@@H]3O[C@@]4(C)CC[C@@H]1[C@]32OO4 [artemisinin]	0.1 µg/mL	–	–	–	–	–	–	–	–	–	–
CO[C@H]1O[C@@H]2O[C@@]3(C)CC[C@H]4[C@H](C)CC[C@@H]([C@H]1C)[C@@]24OO3 [AM, artemether, reference compound]	–	–	–	–	–	–	–	9.0 days	99.7%	0/5	IC50 [4, 7]: 1.2 ng/mL (≈ 0.00402 µM); IC50 [5, 8]: 0.74 ng/mL (≈ 0.00248 µM)
C[C@H]1[C@@H](O)O[C@@H]2O[C@@]3(C)CC[C@H]4[C@H](C)CC[C@@H]1[C@@]24OO3 [dihydroartemisinin]	0.01 µg/mL	–	–	–	–	–	–	–	–	–	–
CC(C)(N)CNC(=O)C[C@H]1CC[C@]2(CC1)OO[C@]1(O2)C2CC3CC(C2)CC1C3 [OZ277, reference compound]	0.2 µg/mL	0/5	13%	0/5	0%	–	–	8.0 days	99.7%	0/5	Stability in Rat Blood (t1/2) at 37° C. [3]: 0.8; In Vivo Oral t1/2 at 10 mg/kg [1]: 1.6 h; Oral Bioavailability at 10 mg/kg (%) [1]: 19%
